Like-named read-outs stand apart in the source and are kept apart here.
Columns and labels:
OXPHOS gene expression = assay type: cell-based, mouse
mtOXPHOS transcripts = assay type: cell-based, mouse
reactive oxygen species = assay type: cell-based, mouse
[1] = system: mitochondrial membrane potential; assay type: cell-based, mouse
[2] = system: cellular dehydrogenase activity
nuOXPHOS transcripts = assay type: cell-based, mouse
cytochrome c = assay type: cell-based, mouse
[3] = composite Z-score vs DMSO wells, Conc 20 μM
[4] = composite Z-score vs DMSO, Conc 20 μM
[5] = composite Z-score vs mock-treated (DMSO) wells, concentration of each compound in μM
[6] = composite Z-score vs mock-treated (DMSO) wells, Conc 20 μM
[7] = composite Z-score vs DMSO, Conc 10.24 μM
[8] = 20 μM, composite Z-score vs DMSO
[9] = normalized composite Z-score vs mock-treated (DMSO) wells, Conc 20 μM

O=c1cc(-c2ccccc2)oc2cc(O)cc(O)c12 [chrysin]
GE-HTS (OXPHOS gene expression; [3]): −0.137 | mitoOX (mtOXPHOS transcripts; [3]): −0.552 | ROS (reactive oxygen species; [3]): 0.949 | ΔΨm [1, 3]: −0.941 | MTT [2, 3]: −1.566 | Viability (C2C12 myotubes; [3]): −0.802 | nucOX (nuOXPHOS transcripts; [3]): 0.071 | cyt c (cytochrome c): 0.920 | cyt c (cytochrome c; [3]): 0.655

C[C@H](CCC(=O)O)[C@H]1CC[C@H]2[C@@H]3CC[C@@H]4CCCC[C@]4(C)[C@H]3CC[C@]12C [ursocholanic acid]
GE-HTS (OXPHOS gene expression; [4]): −0.920 | mitoOX (mtOXPHOS transcripts; [4]): −0.657 | ROS (reactive oxygen species; [4]): 0.978 | ΔΨm [1, 4]: −1.738 | MTT [2, 4]: −0.246 | Viability (C2C12 myotubes; [4]): 0.050 | nucOX (nuOXPHOS transcripts; [4]): −0.946 | cyt c (cytochrome c; [4]): 1.303

CC1=C2C(=CO[C@H](C)[C@H]2C)C(O)=C(C(=O)O)C1=O [citrinin]
GE-HTS (OXPHOS gene expression; [3]): 0.608 | mitoOX (mtOXPHOS transcripts; [3]): 0.218 | ROS (reactive oxygen species; [3]): 0.122 | ΔΨm [1, 3]: −0.590 | MTT [2, 3]: −0.980 | Viability (C2C12 myotubes; [3]): −0.040 | nucOX (nuOXPHOS transcripts; [3]): 0.730 | cyt c (cytochrome c; [3]): 0.012

C[C@@H]1NCCc2cc(O)c(O)cc21 [salsolinol]
GE-HTS (OXPHOS gene expression; [5]): −0.284 | mitoOX (mtOXPHOS transcripts; [5]): −0.397 | ROS (reactive oxygen species; [5]): −0.248 | ΔΨm [1, 5]: −0.160 | MTT [2, 5]: −1.113 | Viability (C2C12 myotubes; [5]): −1.127 | nucOX (nuOXPHOS transcripts; [5]): −0.197 | cyt c (cytochrome c; [5]): −0.994

O=[N+]([O-])NC1=NCCN1Cc1ccc(Cl)nc1 [imidacloprid]
GE-HTS (OXPHOS gene expression; [4]): −0.294 | mitoOX (mtOXPHOS transcripts; [4]): −0.368 | ROS (reactive oxygen species; [4]): 0.075 | ΔΨm [1, 4]: −0.019 | MTT [2, 4]: −0.893 | Viability (C2C12 myotubes; [4]): −0.121 | nucOX (nuOXPHOS transcripts; [4]): −0.214 | cyt c (cytochrome c; [4]): 0.607

CC(=O)O[C@H]1C[C@@H](OC(C)=O)C(C)(C)C2CC(=O)[C@]3(C)C(CC[C@@]4(C)[C@H](c5ccoc5)OC(=O)[C@H]5O[C@]543)[C@]21C (stereo partly shown) [7-deacetoxy-7-oxokhivorin]
GE-HTS (OXPHOS gene expression; [6]): 0.777 | mitoOX (mtOXPHOS transcripts; [6]): 0.738 | ROS (reactive oxygen species; [6]): 0.070 | ΔΨm [1, 6]: 0.258 | MTT [2, 6]: −0.095 | Viability (C2C12 myotubes; [6]): 0.053 | nucOX (nuOXPHOS transcripts; [6]): 0.690 | cyt c (cytochrome c; [6]): −0.184

C[N+]1(CCCCC[N+]2(C)CCCC2)CCCC1 [pentolinium]
GE-HTS (OXPHOS gene expression; [7]): 0.521 | GE-HTS (OXPHOS gene expression; [4]): −1.000 | mitoOX (mtOXPHOS transcripts; [7]): 0.444 | mitoOX (mtOXPHOS transcripts; [4]): −1.080 | ROS (reactive oxygen species; [7]): 3.608 | ROS (reactive oxygen species; [4]): 0.392 | ΔΨm [1, 7]: −0.024 | ΔΨm [1, 4]: 0.209 | MTT [2, 7]: 0.254 | MTT [2, 4]: −0.771 | Viability (C2C12 myotubes; [7]): 0.213 | Viability (C2C12 myotubes; [4]): −0.568 | nucOX (nuOXPHOS transcripts; [7]): 0.489 | nucOX (nuOXPHOS transcripts; [4]): −0.840 | cyt c (cytochrome c; [7]): 0.387 | cyt c (cytochrome c; [4]): −0.703

COC1=C[C@@H](C)[C@@H]2C[C@H]3OC(=O)C[C@H]4C(C)=C(OC)C(=O)[C@H]([C@@]2(C)C1=O)[C@@]34C [quassin, reference compound]
GE-HTS (OXPHOS gene expression; [8]): 0.095 | mitoOX (mtOXPHOS transcripts; [8]): −0.168 | ROS (reactive oxygen species; [8]): 0.925 | ΔΨm [1, 8]: 0.033 | MTT [2, 8]: −0.400 | Viability (C2C12 myotubes; [8]): −0.688 | nucOX (nuOXPHOS transcripts; [8]): 0.205 | cyt c (cytochrome c; [8]): −0.233

O=C(O)CF [sodium fluoroacetate]
GE-HTS (OXPHOS gene expression; [4]): −0.009 | mitoOX (mtOXPHOS transcripts; [4]): −0.459 | ROS (reactive oxygen species; [4]): 0.613 | ΔΨm [1, 4]: −0.784 | MTT [2, 4]: −1.379 | Viability (C2C12 myotubes; [4]): −0.906 | nucOX (nuOXPHOS transcripts; [4]): 0.206 | cyt c (cytochrome c; [4]): 0.653

COC[C@]12CN(C=O)[C@@H]3[C@@H]4[C@H](OC)[C@H]1[C@@]3([C@@H](OC)C[C@H]2O)[C@@H]1C[C@@]2(O)[C@H](OC(=O)c3ccccc3)[C@@H]1[C@]4(OC(C)=O)[C@@H](O)[C@@H]2OC [oxonitine]
GE-HTS (OXPHOS gene expression; [6]): −0.636 | mitoOX (mtOXPHOS transcripts; [6]): 0.147 | ROS (reactive oxygen species; [6]): −0.167 | ΔΨm [1, 6]: −1.019 | MTT [2, 6]: −1.730 | Viability (C2C12 myotubes; [6]): −1.338 | nucOX (nuOXPHOS transcripts; [6]): −0.938 | cyt c (cytochrome c; [6]): 0.394

C[N+]12CCC(CC1)C(OC(=O)C(O)(c1ccccc1)c1ccccc1)C2 (stereo not shown) [clidinium]
GE-HTS (OXPHOS gene expression): −0.462 | GE-HTS (OXPHOS gene expression; [8]): −0.556 | mitoOX (mtOXPHOS transcripts): −0.903 | mitoOX (mtOXPHOS transcripts; [8]): −0.602 | ROS (reactive oxygen species): 1.870 | ROS (reactive oxygen species; [8]): 1.625 | ΔΨm [1]: −0.715 | ΔΨm [1, 8]: −0.772 | MTT [2]: −2.250 | MTT [2, 8]: −1.393 | Viability (C2C12 myotubes): 0.172 | Viability (C2C12 myotubes; [8]): −0.084 | nucOX (nuOXPHOS transcripts): −0.202 | nucOX (nuOXPHOS transcripts; [8]): −0.503 | cyt c (cytochrome c): 0.176 | cyt c (cytochrome c; [8]): −0.062

Cc1cc(=O)c2c(O)cc(O)c(C)c2o1 [isoeugenitol]
GE-HTS (OXPHOS gene expression; [6]): −0.717 | mitoOX (mtOXPHOS transcripts; [6]): −0.680 | ROS (reactive oxygen species; [6]): 1.129 | ΔΨm [1, 6]: 0.369 | MTT [2, 6]: −0.500 | Viability (C2C12 myotubes; [6]): 0.377 | nucOX (nuOXPHOS transcripts; [6]): −0.647 | cyt c (cytochrome c; [6]): 0.662

NCC[C@H](O)C(=O)N[C@@H]1C[C@H](N)[C@@H](O[C@H]2O[C@H](CN)[C@@H](O)[C@H](O)[C@H]2O)[C@H](O)[C@H]1O[C@H]1O[C@H](CO)[C@@H](O)[C@H](N)[C@H]1O [amikacin]
GE-HTS (OXPHOS gene expression; [4]): 0.332 | mitoOX (mtOXPHOS transcripts; [4]): 0.338 | ROS (reactive oxygen species; [4]): 0.301 | ΔΨm [1, 4]: −0.116 | MTT [2, 4]: −1.688 | Viability (C2C12 myotubes; [4]): 0.034 | nucOX (nuOXPHOS transcripts; [4]): 0.268 | cyt c (cytochrome c; [4]): −0.090

COc1cc(O)c2c(=O)cc(C)oc2c1CC=C(C)C [heteropeucenin, methyl ether]
GE-HTS (OXPHOS gene expression; [6]): 0.299 | mitoOX (mtOXPHOS transcripts; [6]): 0.217 | ROS (reactive oxygen species; [6]): 0.256 | ΔΨm [1, 6]: 0.886 | MTT [2, 6]: −1.476 | Viability (C2C12 myotubes; [6]): −0.034 | nucOX (nuOXPHOS transcripts; [6]): 0.328 | cyt c (cytochrome c; [6]): 0.416

C=CC(C1=CC(=O)C(OC)=CC1=O)c1ccc(O)cc1 (stereo not shown) [4-methoxy-4′-hydroxy-dalbergione]
GE-HTS (OXPHOS gene expression; [6]): −1.401 | mitoOX (mtOXPHOS transcripts; [6]): −1.071 | ROS (reactive oxygen species; [6]): 0.639 | ΔΨm [1, 6]: 0.406 | MTT [2, 6]: −0.877 | Viability (C2C12 myotubes; [6]): 1.548 | nucOX (nuOXPHOS transcripts; [6]): −1.406 | cyt c (cytochrome c; [6]): 0.803

COc1ccc2c(c1)OCc1c-2oc2cc(OC)ccc12 [dehydrovariabilin]
GE-HTS (OXPHOS gene expression; [4]): 0.367 | mitoOX (mtOXPHOS transcripts; [4]): 0.416 | ROS (reactive oxygen species; [4]): 0.167 | ΔΨm [1, 4]: 0.951 | MTT [2, 4]: −1.225 | Viability (C2C12 myotubes; [4]): 0.309 | nucOX (nuOXPHOS transcripts; [4]): 0.277 | cyt c (cytochrome c; [4]): 0.043

CC1(C)CC2C1CC[C@]1(CBr)CCC3C(CC(=O)O)C(=O)O[C@@]32C1 (stereo partly shown)
GE-HTS (OXPHOS gene expression; [9]): −1.029 | mitoOX (mtOXPHOS transcripts; [9]): −1.624 | ROS (reactive oxygen species; [9]): 0.604 | ΔΨm [1, 9]: −0.084 | MTT [2, 9]: −0.892 | Viability (C2C12 myotubes; [9]): −0.498 | nucOX (nuOXPHOS transcripts; [9]): −0.612 | cyt c (cytochrome c; [9]): 0.551

CC[C@H](C)[C@H](NC)C(=O)O [N-methylisoleucine]
GE-HTS (OXPHOS gene expression): 0.772 | mitoOX (mtOXPHOS transcripts): 0.850 | ROS (reactive oxygen species): 0.300 | ΔΨm [1]: −0.210 | MTT [2]: 0.372 | Viability (C2C12 myotubes): 1.026 | nucOX (nuOXPHOS transcripts): 0.676 | cyt c (cytochrome c): −0.451

COc1ccc2c(=O)c(OC)c(-c3ccccc3)oc2c1 [3,7-dimethoxyflavone]
GE-HTS (OXPHOS gene expression; [9]): −0.945 | mitoOX (mtOXPHOS transcripts; [9]): −0.434 | ROS (reactive oxygen species; [9]): 0.652 | ΔΨm [1, 9]: 0.817 | MTT [2, 9]: −1.089 | Viability (C2C12 myotubes; [9]): −0.730 | nucOX (nuOXPHOS transcripts; [9]): −1.084 | cyt c (cytochrome c; [9]): 0.982
